This is an account of results in patent US9249125B2, “Pyrazole derivatives as p38 MAP inhibitors” (RESPIVERT LIMITED, priority 2012, dated 2016).

pEC50, pIC50: −log10 of the molar value.

Data set [1] relates to LPS-induced IL-8 release in d-U937 cells. Description: LPS-induced IL-8 release in d-U937 cells. Type of data set: cell-based. The conditions noted are these: Homo sapiens, dU937, read-out: LPS Induced Release of Cytokine in d-937 Cells IL-8 IC50. The procedure, abridged:
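Read-out: TNFα and IL-8 released into supernatant, sandwich ELISA, expressed as inhibition versus vehicle at each dose and fitted to give REC50. Cells were PMA-differentiated U937 (100 ng/mL, 48–72 hr), compound-exposed 2 hr before a 4 hr LPS stimulus (0.1 μg/mL).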

The test system of a further data set is d-U937 cells. Description: Cell viability: MTT assay. The class given is cell-based, human. Conditions: 1 μg/mL. The procedure, abridged: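 MTT read-out (1 h, absorbance 550 nm) on d-U937 cells after pre-incubation with 1 or 10 μg/mL compound under two regimes: 4 h, 5% FCS, or 24 h, 10% FCS RPMI1640. Values are percent loss of viability relative to vehicle (0.5% DMSO), so increases are reported as negative.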
A general note: Formazan colour is commonly taken as a measure of viable cells.

In another data set the target is Syk (Homo sapiens (Human), UniProt P43405). Description: Syk enzyme inhibition (FRET, Z-LYTE). Type of data set: biochemical. The procedure, abridged: (§1)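 Z-LYTE FRET kinase assay: enzyme (3000 or 2000 ng/mL stock, respectively) preincubated 2 h at RT with compound (4–0.004 μg/mL stocks), then FRET peptide plus ATP (800 μM stock for c-Src, 60 μM for Syk) added for 1 h. Protease development 1 h; phosphorylation from coumarin/fluorescein emission ratio.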

For a further data set, the target named is GSK3α (Homo sapiens (Human), UniProt P49840). Kind of data set: GSK 3α enzyme inhibition (FRET, Z-LYTE). The class given is biochemical. Summed up: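 Phosphorylation was read as the donor (coumarin) to acceptor (fluorescein) ratio after a 1 hr protease step destroying non-phosphorylated peptide. Before this, compound (4–0.004 μg/mL stocks) sat 2 hr at RT with GSK3α (500 ng/mL stock), followed by 1 hr kinase reaction with 8 μM peptide and 40 μM ATP stocks.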

Another data set concerns the target cSrc (Homo sapiens (Human), UniProt P12931). Kind of data set: c-Src enzyme inhibition (FRET, Z-LYTE). The class given is biochemical. The procedure, abridged:
as §1

The subject of data set [2] is Poly I:C-induced ICAM-1 expression in BEAS2B cells. Kind of data set: Poly I:C-induced ICAM-1 expression in BEAS2B cells. The class given is cell-based. Conditions: Homo sapiens, BEAS-2B, read-out: Poly IC induced ICAM1 in BEAS2B IC50. Summed up:
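Cell-based ELISA read at 450 nm minus 655 nm, divided by crystal violet OD595 to normalize for cell number, gave ICAM-1 levels. Readout was taken 18 hr after poly I:C (1 μg/mL, Oligofectamine) transfection of human bronchial BEAS2B cells pretreated 2 hr with test compound.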

For a further data set, the target named is p38 MAPKα (Homo sapiens (Human), UniProt Q16539). Description: p38 MAPKα enzyme inhibition (FRET, Z-LYTE). The class given is biochemical.
The test system of data set [3] is LPS-induced TNFα release in d-U937 cells. Description: LPS-induced TNFα release in d-U937 cells. Type of data set: cell-based. Conditions: Homo sapiens, dU937, relative to 10 μg/mL BIRB796, read-out: LPS Induced Release of Cytokine in d-937 Cells TNFα REC50. Summed up:
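Sandwich ELISA of culture supernatant gives TNFα and IL-8 levels after a 4 hr challenge with LPS (0.1 μg/mL, E. coli O111:B4). Before stimulation, macrophage-like U937 cells, obtained by 48–72 hr in PMA at 100 ng/mL, sit with compound for 2 hr. Relative EC50 is derived from concentration-response data.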

cSrc, sequence (P12931 whole entry, looked up): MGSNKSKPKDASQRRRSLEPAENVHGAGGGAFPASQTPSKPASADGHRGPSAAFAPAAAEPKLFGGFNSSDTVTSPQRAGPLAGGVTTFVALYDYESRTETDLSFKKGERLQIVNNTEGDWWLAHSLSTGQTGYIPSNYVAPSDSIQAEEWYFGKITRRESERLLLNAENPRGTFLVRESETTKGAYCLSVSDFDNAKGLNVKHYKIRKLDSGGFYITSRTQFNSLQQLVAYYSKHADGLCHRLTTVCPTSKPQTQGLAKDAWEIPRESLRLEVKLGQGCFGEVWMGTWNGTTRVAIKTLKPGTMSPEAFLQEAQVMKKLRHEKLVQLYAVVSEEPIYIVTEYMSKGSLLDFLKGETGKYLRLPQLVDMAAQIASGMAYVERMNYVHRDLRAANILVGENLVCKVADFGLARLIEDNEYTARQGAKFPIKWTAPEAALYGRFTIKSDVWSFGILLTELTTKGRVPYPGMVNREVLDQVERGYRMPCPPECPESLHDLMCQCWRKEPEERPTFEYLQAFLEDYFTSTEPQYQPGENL
p38 MAPKα, sequence (Q16539 whole entry): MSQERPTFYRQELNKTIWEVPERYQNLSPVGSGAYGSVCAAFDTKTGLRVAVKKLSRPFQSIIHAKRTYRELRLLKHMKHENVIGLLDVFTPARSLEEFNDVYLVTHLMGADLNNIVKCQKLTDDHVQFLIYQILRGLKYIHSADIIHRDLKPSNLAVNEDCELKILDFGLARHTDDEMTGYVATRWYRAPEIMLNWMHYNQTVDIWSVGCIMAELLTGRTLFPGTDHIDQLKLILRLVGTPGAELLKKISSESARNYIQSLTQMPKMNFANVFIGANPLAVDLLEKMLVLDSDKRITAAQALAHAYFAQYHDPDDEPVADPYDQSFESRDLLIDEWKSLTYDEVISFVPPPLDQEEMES
GSK3α, sequence (P49840 whole entry): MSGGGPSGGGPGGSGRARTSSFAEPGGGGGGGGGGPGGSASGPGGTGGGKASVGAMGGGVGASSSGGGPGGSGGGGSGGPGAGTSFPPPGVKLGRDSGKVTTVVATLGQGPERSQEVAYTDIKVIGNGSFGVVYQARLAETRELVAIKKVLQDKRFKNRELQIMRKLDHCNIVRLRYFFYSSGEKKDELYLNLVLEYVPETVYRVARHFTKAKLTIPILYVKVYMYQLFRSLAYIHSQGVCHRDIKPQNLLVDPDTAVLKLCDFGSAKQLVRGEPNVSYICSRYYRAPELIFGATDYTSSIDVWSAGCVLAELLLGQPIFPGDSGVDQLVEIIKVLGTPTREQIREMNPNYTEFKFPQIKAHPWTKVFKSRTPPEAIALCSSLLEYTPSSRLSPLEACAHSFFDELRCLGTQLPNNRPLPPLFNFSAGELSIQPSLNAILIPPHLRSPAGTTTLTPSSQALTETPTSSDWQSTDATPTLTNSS

Turning to `Cc1ccc(-n2nc(C(C)(C)C)cc2NC(=O)Nc2ccc(Oc3ccnc(Nc4cc(Cl)c5[nH]ncc5c4)n3)c3ccccc23)cc1` [Example 28, 1-(3-(tert-butyl)-1-(p-tolyl)-1H-pyrazol-5-yl)-3-(4-((2-((7-chloro-1H-indazol-5-yl)amino)pyrimidin-4-yl)oxy)naphthalen-1-yl)urea], the pIC50 is 8.77 in data set [1]; 6.15 against Syk; less than 5.82 on GSK3α; 6.79 on cSrc; 8.47 in data set [2]; less than 5.82 against p38 MAPKα. For the same compound, in the data set with d-U937 cells, the “MTT Assay Cell viability at time point in d-U937 cells 4 h” value was “−ve (−ve and +ve indicate that the value is below and above respectively, the no significant effect threshold, defined as 30% inhibition at 1 μg/mL at the time point indicated.)”. In addition, the “MTT Assay Cell viability at time point in d-U937 cells 24 h” value in the data set with d-U937 cells was “−ve (−ve and +ve indicate that the value is below and above respectively, the no significant effect threshold, defined as 30% inhibition at 1 μg/mL at the time point indicated.)”. Also, the pEC50 in data set [3] is 8.80.
Turning to `CC(C)(C)c1cc(NC(=O)Nc2ccc(Oc3ccnc(Nc4ccc5c(c4)CS(=O)(=O)C5)n3)c3ccccc23)n(-c2ccc(OCCN3CCOCC3)cc2)n1` [Example 64, 1-(3-(tert-butyl)-1-(4-(2-morpholinoethoxy)phenyl)-1H-pyrazol-5-yl)-3-(4-((2-((2,2-dioxido-1,3-dihydrobenzo[c]thiophen-5-yl)amino)pyrimidin-4-yl)oxy)naphthalen-1-yl)urea], the pIC50 is 8.89 in data set [1]; 7.70 on Syk; 6.36 against GSK3α; 8.52 against cSrc; 11.00 in data set [2]; 7.17 at p38 MAPKα. Besides, the “MTT Assay Cell viability at time point in d-U937 cells 4 h” value with d-U937 cells was “−ve (−ve and +ve indicate that the value is below and above respectively, the no significant effect threshold, defined as 30% inhibition at 1 μg/mL at the time point indicated.)”. Moreover, the “MTT Assay Cell viability at time point in d-U937 cells 24 h” value in the data set on d-U937 cells was “−ve (−ve and +ve indicate that the value is below and above respectively, the no significant effect threshold, defined as 30% inhibition at 1 μg/mL at the time point indicated.)”. The pEC50 in data set [3] was 8.96.
For `COc1ccc(-n2nc(C(C)(C)C)cc2NC(=O)Nc2ccc(Oc3ccnc(Nc4ccc5[nH]nc(C(=O)N(C)C)c5c4)n3)c3ccccc23)cc1` [Example 47, 5-((4-((4-(3-(3-(tert-butyl)-1-(4-methoxyphenyl)-1H-pyrazol-5-yl)ureido)naphthalen-1-yl)oxy)pyrimidin-2-yl)amino)-N,N-dimethyl-1H-indazole-3-carboxamide], the pIC50 in data set [1] was 8.48; against Syk, 8.30; at GSK3α, 6.33; at cSrc it was greater than 9.00; in data set [2], 9.30; on p38 MAPKα, 7.49. Besides, the “MTT Assay Cell viability at time point in d-U937 cells 4 h” value with d-U937 cells was “−ve (−ve and +ve indicate that the value is below and above respectively, the no significant effect threshold, defined as 30% inhibition at 1 μg/mL at the time point indicated.)”. Moreover, the “MTT Assay Cell viability at time point in d-U937 cells 24 h” value with d-U937 cells was “−ve (−ve and +ve indicate that the value is below and above respectively, the no significant effect threshold, defined as 30% inhibition at 1 μg/mL at the time point indicated.)”. For the same compound, the pEC50 in data set [3] was 9.05.
With `COc1ccc(-n2nc(C(C)C)cc2NC(=O)Nc2ccc(Oc3cc(Nc4ccc5[nH]ncc5c4)ncn3)c3ccccc23)cc1` [Example 39, 1-(4-((6-((1H-indazol-5-yl)amino)pyrimidin-4-yl)oxy)naphthalen-1-yl)-3-(3-isopropyl-1-(4-methoxyphenyl)-1H-pyrazol-5-yl)urea], the pIC50 is 7.82 in data set [1]; 7.41 at Syk; less than 4.80 against GSK3α; 7.96 against cSrc; 6.80 in data set [2]; 8.00 at p38 MAPKα. The “MTT Assay Cell viability at time point in d-U937 cells 4 h” value in the data set on d-U937 cells is “−ve (−ve and +ve indicate that the value is below and above respectively, the no significant effect threshold, defined as 30% inhibition at 1 μg/mL at the time point indicated.)”. Moreover, in the data set on d-U937 cells, the “MTT Assay Cell viability at time point in d-U937 cells 24 h” value was “−ve (−ve and +ve indicate that the value is below and above respectively, the no significant effect threshold, defined as 30% inhibition at 1 μg/mL at the time point indicated.)”. Besides, the pEC50 in data set [3] is 8.24.
Consider `CC(C)(C)c1cc(NC(=O)Nc2ccc(Oc3ccnc(Nc4ccc5[nH]nnc5c4)n3)c3ccccc23)n(-c2ccc(OCCN3CCOCC3)cc2)n1` [Example 81, 1-(4-((2-((1H-benzo[d][1,2,3]triazol-5-yl)amino)pyrimidin-4-yl)oxy)naphthalen-1-yl)-3-(3-(tert-butyl)-1-(4-(2-morpholinoethoxy)phenyl)-1H-pyrazol-5-yl)urea], for which the pIC50 in data set [1] was 8.80; on Syk it was 7.85; against GSK3α, 6.19; against cSrc, 8.30; in data set [2] it was 8.00; against p38 MAPKα, 7.18. Further, in the data set on d-U937 cells, the “MTT Assay Cell viability at time point in d-U937 cells 4 h” value was “−ve (−ve and +ve indicate that the value is below and above respectively, the no significant effect threshold, defined as 30% inhibition at 1 μg/mL at the time point indicated.)”. Besides, the “MTT Assay Cell viability at time point in d-U937 cells 24 h” value in the data set on d-U937 cells was “−ve (−ve and +ve indicate that the value is below and above respectively, the no significant effect threshold, defined as 30% inhibition at 1 μg/mL at the time point indicated.)”. Also, the pEC50 in data set [3] was 8.85.
As to `Cc1ccc(-n2nc(C(C)(C)C)cc2NC(=O)Nc2ccc(Oc3ccnc(Nc4ccc5[nH]ccc5c4)n3)c3ccccc23)cc1` [Example 1, 1-(4-((2-((1H-Indol-5-yl)amino)pyrimidin-4-yl)oxy)naphthalen-1-yl)-3-(3-(tert-butyl)-1-(p-tolyl)-1H-pyrazol-5-yl)urea], the pIC50 in data set [1] was 8.66; against Syk it was 7.30; at GSK3α it was less than 5.79; against cSrc, 7.68; in data set [2], 8.33; on p38 MAPKα, 6.73. The “MTT Assay Cell viability at time point in d-U937 cells 4 h” value in the data set on d-U937 cells is “−ve (−ve and +ve indicate that the value is below and above respectively, the no significant effect threshold, defined as 30% inhibition at 1 μg/mL at the time point indicated.)”. Also, in the data set with d-U937 cells, the “MTT Assay Cell viability at time point in d-U937 cells 24 h” value was “−ve (−ve and +ve indicate that the value is below and above respectively, the no significant effect threshold, defined as 30% inhibition at 1 μg/mL at the time point indicated.)”. Further, in data set [3], the pEC50 was 8.77.
Regarding `CC(C)(C)c1cc(NC(=O)Nc2ccc(Oc3ccnc(Nc4ccc5[nH]ccc5c4)n3)c3ccccc23)n(-c2ccc(O)cc2)n1` [Example 37, 1-(4-((2-((1H-indol-5-yl)amino)pyrimidin-4-yl)oxy)naphthalen-1-yl)-3-(3-(tert-butyl)-1-(4-hydroxyphenyl)-1H-pyrazol-5-yl)urea], the pIC50 in data set [1] is 8.23; on Syk, 6.85; against GSK3α, less than 5.80; against cSrc, 7.80; in data set [2], 8.43; against p38 MAPKα, 6.48. Moreover, the “MTT Assay Cell viability at time point in d-U937 cells 4 h” value in the data set with d-U937 cells is “−ve (−ve and +ve indicate that the value is below and above respectively, the no significant effect threshold, defined as 30% inhibition at 1 μg/mL at the time point indicated.)”. Also, the “MTT Assay Cell viability at time point in d-U937 cells 24 h” value with d-U937 cells is “−ve (−ve and +ve indicate that the value is below and above respectively, the no significant effect threshold, defined as 30% inhibition at 1 μg/mL at the time point indicated.)”. Further, the pEC50 in data set [3] is 8.60.

Usually pIC50 stands for the negative decadic logarithm of the IC50, by convention in mol/L.
